Data on one compound can be found in patent US7449495B2, “Retinoid derivatives with antiangiogenic, antitumoral and proapoptotic activities” (Sigma-Tau Industrie Farmaceutiche Riunite S.p.A., priority 2001, dated 2008).

Assay [1] relates to NB4 acute promyelocytic leukaemia cell line. Put plainly: Cytotoxicity test (sulphorodamine B), NB4. The format is cell-based, human. To be noted: 24 h incubation, survival 48 h after removal, read-out: IC50. An excerpt: To carry out the cytotoxicity tests, two acute promyelocytic leukaemia (APL) cell lines were used. • 1. Cell line NB4, carrying the chromosomal translocation t(15; 17) which generates the fusion protein PML/RARα. This cell line is extremely sensitive to the differentiating action of pharmaceutical doses of ATRA (10^−7-10^−6 M); • 2. Cell line HL60, which responds to ATRA less sensitively with respect to cell line NB4.
These cell lines were maintained in RPMI 1640 containing 10% foetal calf serum (FCS) and 1% glutamine.
The cytotoxicity tests were carried out using NB4 or HL-60 cells in suspension (10000/well). The cells were seeded in a volume of 250 μl in 96 well plates and incubated for 24 hours at 37° C. The following day, test compound ST 1926 [(2E)-3-[3′-(1-Adamantyl)-4′-hydroxy[1,1′-biphenyl]-4-yl]-2-propenoate/ic acid] was added at increasing concentrations, and the cells were incubated for a further 24 hours at 37° C. in a humidified atmosphere containing 5% CO2. On the 3rd day, the medium was removed by centrifuging the plate at 1600×g for 10 min and the supernatant decanted. 250 μl of PBS were added; then the plates were centrifuged again at 1600×g for 10 minutes and the supernatant decanted. 200 μl/well of RPMI 1640 medium containing 10% FCS were added and the plates were incubated at 37° C. for a further 48 hours. On the 5th day, the plates were again centrifuged at 1600×g for 10 minutes, and the medium was removed by upturning the plates, 200 μl of PBS and 50 μl of cold, 80% TCA were added. The plates were then left to incubate on ice for at least 1 hour. The TCA was removed by upturning; the plates were washed three times by immersion in distilled water and dried first on paper, then with a jet of hot air. To all wells were added 200 μl of 0.4% sulphorodamine B in 1% acetic acid. The plates were incubated at room temperature for a further 30 minutes. […] The optical density was measured using a Multiskan spectrophotometer at 540 nm.
(§1) Cell survival was determined by incubation with ST1926 for 24 hours, 48 hours after the removal of the compound. […]

The test system of assay [2] is vitamin-A deficient hamster trachea in organ culture. To be noted: cited from earlier work.
Assay [3] concerns no small cell lung carcinoma NCI-H460. Kind of assay: Cytotoxicity test (sulphorodamine B), NCI-H460. The assay is classed as cell-based. To be noted: Homo sapiens, 24 h incubation, survival 48 h after removal.
Description: (§2) Different cell lines deriving from solid tumors were also used. • 1. Human prostate carcinoma PC3 and DU145. These cell lines were maintained in RPMI 1640 medium containing 10% FCS, 1% sodium pyruvate and 1% glutamine; • 2. Human colon adenocarcinoma LoVo. This cell line was maintained in HAM's F-12 medium, containing 10% FCS and 1% glutamine. • 3. Human ovarian carcinoma such as A2780 and A2780/Dx, sensitive and resistant to drugs, respectively (doxorubicin, taxol, etoposide, vincristine); IGROV-1 and IGROV-1/Pt, sensitive and resistant to platinum-based chemotherapy, respectively, were maintained in RPMI 1640 medium containing 10% FCS, 1% sodium pyruvate and 1% glutamine; • 4. Human melanoma MeWo and MeS 2.21, glioblastoma GBM, no small cell lung carcinomas A431, NCI—H460, osteosarcomas SAOS and U2OS were maintained in RPMI 1640 medium containing 10% FCS, 1% sodium pyruvate and 1% glutamine.
(§3) The cytotoxicity tests were carried out using NB4 or HL-60 cells in suspension (10000/well). The cells were seeded in a volume of 250 μl in 96 well plates and incubated for 24 hours at 37° C. […] The optical density was measured using a Multiskan spectrophotometer at 540 nm. […]
as §1

Assay [4] has as its system Human ovarian carcinoma A2780. Put plainly: Cytotoxicity test (sulphorodamine B), A2780. The assay is classed as cell-based. To be noted: 24 h incubation, survival 48 h after removal.
Description: as §2, §3, §1

For assay [5], the system named is Human colon adenocarcinoma LoVo. Kind of assay: Cytotoxicity test (sulphorodamine B), LoVo. The assay is classed as cell-based. To be noted: 24 h incubation, survival 48 h after removal, read-out: IC50.
Description: as §2, §3, §1

Assay [6] has as its system F9 embryonic teratocarcinoma cells. The following applies: cited from earlier work.
Another assay relates to Human melanoma MeS 2.21. Put plainly: Cytotoxicity test (sulphorodamine B), MeS 2.21. The format is cell-based. The following applies: 24 h incubation, survival 48 h after removal.
Description: as §2, §3, §1

The test system of assay [7] is human microvascular endothelial (HMVE) cells. To be noted: after 96 h of treatment, cited from earlier work.

Read-outs that look alike come from different tables or passages of the source.

For `O=C(O)/C=C/c1ccc(-c2ccc(O)c(C34CC5CC(CC(C5)C3)C4)c2)cc1` [ST1926, E-4-(3-(1-adamantyl)-4-hydroxyphenyl)cinnamic acid], the IC50 came to 20 nM in assay [1]; 22 nM in assay [1] (Homo sapiens); 190 nM in assay [3]; 100 nM in assay [4]; 240 nM in assay [5]; 230 nM in the assay with Human melanoma MeS 2.21. The IC50 in assay [7] (highest concentration evaluated 0.5 μM, read-out: IC50 (concentration inhibiting proliferation by 50%)) is 100 nM. The “activity in the TOC assay compared with compound 1 (in words)” value in assay [2] was “lower activities”. Also, in assay [6], the “activity in the F9 assay compared with compound 1 (in words)” value is recorded as “lower activities”. Moreover, the “inhibition (%) at 0.5 μM” value in assay [7] (0.5 μM, relative to vehicle alone control) is reported as 90%.
